Test results reported in PubChem BioAssay (NCI).
Several values for one entry are separate records, joined by “and”; a condition that tells them apart may be missing. Identical values can stand only once.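 Tested at 5 concentrations; 48 h exposure; 96-well plates; endpoints linearly interpolated, else capped at highest concentration. The concentration for 50% growth inhibition is given as GI50. TGI denotes the concentration required for complete inhibition of growth.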

How the values were obtained:
Experiment in all cases: DTP human tumour cell line panel, 48 h
[1] = test system: EKVX NSCLC
[2] = test system: HOP-92 NSCLC
[3] = test system: MALME-3M melanoma
[4] = test system: NCI-H522 lung
[5] = test system: OVCAR-8 ovarian
[6] = test system: SK-MEL-28 melanoma
[7] = test system: SK-MEL-5 melanoma
[8] = test system: NCI-H226 lung
[9] = test system: MDA-MB-231 breast
[10] = test system: HS 578T breast

Compound	TGI [1]	TGI [2]	TGI [3]	TGI [4]	TGI [5]	TGI [6]	TGI [7]	TGI [8]	TGI [9]	TGI [10]	GI50 [1]	GI50 [2]	GI50 [10]	GI50 [3]	GI50 [9]	GI50 [4]	GI50 [5]	GI50 [6]	GI50 [7]	GI50 [8]
Cc1ccc(/C=C(\NC(=O)c2ccccc2)c2nc3ccccc3[nH]2)cc1	> 100 µM	86.5 µM	> 100 µM	> 100 µM	> 100 µM	> 100 µM	36.7 µM													
Cc1[nH]c2ccccc2c1CC/C(=N\Nc1ccccc1)c1ccccc1	> 100 µM		> 100 µM		> 100 µM	> 100 µM	> 100 µM	> 100 µM												
CSc1ccc2c(cc1=O)[C@@H](NC(=O)c1ccc(Cl)cc1)CCc1cc(O)c(O)c(O)c1-2	> 100 µM	> 100 µM	> 100 µM	52.1 µM	> 100 µM	> 100 µM	> 100 µM	> 100 µM												
CCC1C(C(=O)Nc2ccccc2C)=C(C)NC(C)=C1c1ccccc1C (centres undefined)	> 100 µM	> 100 µM	> 100 µM	> 100 µM	> 100 µM	> 100 µM	> 100 µM	> 100 µM												
O=C(Cc1nc2ccccc2o1)C(=O)Nc1cccc(Cl)c1	> 100 µM	> 100 µM	> 100 µM	> 100 µM	> 100 µM	> 100 µM		> 100 µM												
CCN(CC)CC(C)C(=O)/C=C/c1ccc(C)cc1 (centres undefined)	26.8 µM	4.84 µM	7.08 µM		11.3 µM	3.69 µM	17 µM	31.3 µM												
O=C(NCCCl)Nc1cccnc1	38.3 µM	53.3 µM	7.4 µM	62.1 µM	27.9 µM	> 100 µM	> 100 µM	30.5 µM	33.3 µM											
COc1cc2oc(-c3ccccc3)cc(=O)c2c(O)c1C	> 100 µM	> 100 µM	> 100 µM	> 100 µM	> 100 µM	> 100 µM	> 100 µM	> 100 µM												
O=C(/C=C/c1ccccc1O)c1ccc([N+](=O)[O-])cc1	43.4 µM	> 100 µM	> 100 µM	33.1 µM	29.1 µM	94.4 µM	49.8 µM	46.1 µM												
CSc1nc2nn(Cc3ccccc3)cc2c(=O)[nH]1	> 100 µM	> 100 µM	> 100 µM	> 100 µM	> 100 µM	> 100 µM	> 100 µM	> 100 µM												
CN(C)CCC(CCN(C)C)=NO	> 100 µM		> 100 µM	> 100 µM	> 100 µM	> 100 µM	> 100 µM													
CCCCCCn1c(SC)nc(COC(=O)NC)c1COC(=O)NC	27.1 µM			23.5 µM	34.3 µM	32.4 µM	30.3 µM	33.3 µM	32.8 µM	40.3 µM										
CN(C)CC(=O)Nc1ccc2ncnc(Nc3ccc(Oc4cccc(C(F)(F)F)c4)c(Cl)c3)c2c1	8.05 µM	3.55 µM	3.36 µM	5.37 µM	13.1 µM	3.22 µM	3.09 µM		3.29 µM	4.58 µM	1.7 µM	1.27 µM	1.78 µM	1.68 µM	1.54 µM	1.8 µM	3.24 µM	1.74 µM	1.69 µM	
O=C(OCCCl)C1OC(n2cc(F)c(=O)[nH]c2=O)CC1O (centres undefined)	> 100 µM	> 100 µM	> 100 µM	> 100 µM	> 100 µM	> 100 µM	> 100 µM	> 100 µM												
CCn1c2ccccc2c(=O)c2c(OC)ccc(OC)c21	> 100 µM	98.7 µM	> 100 µM	> 93.8 µM	> 100 µM			> 100 µM												
C=CC(=O)NC(N)=NC#N		> 63.7 µM and 252 µM	303 µM	36.9 µM and 4.09 µM	484 µM	261 µM	301 µM	353 µM				103 µM				1.95 µM				
O=C(N/C(=C\c1cccc([N+](=O)[O-])c1)c1nc2ccccc2[nH]1)c1ccccc1	> 100 µM	> 100 µM	> 100 µM	> 100 µM	> 100 µM	68.9 µM	> 100 µM	> 100 µM												
N#CC1=C(N)NC(=S)NC12Nc1ccccc1S2 (centres undefined)	37.9 µM	> 100 µM	56.8 µM	70.5 µM	> 100 µM	66.9 µM	54.9 µM	> 100 µM	70.6 µM		3.71 µM	22.4 µM		24.2 µM	16.4 µM	21.3 µM	39.6 µM	26.3 µM	19.6 µM	31.2 µM
C=C1C(=O)O[C@H]2[C@H](OC(C)=O)[C@@H](C)CCCC3(C)OC3CCC3(CO3)[C@H](O)C[C@@H]12 (some centres undefined)	30.3 µM		21.6 µM	28.7 µM	> 100 µM	41.6 µM	24.9 µM	31.7 µM	23.9 µM	43.4 µM	12.1 µM		11.8 µM	6.01 µM	8.22 µM	9.6 µM	17.5 µM	8.36 µM	11.9 µM	10.9 µM
COC(=O)c1ncc2c(=O)[nH]c3ccccc3c2c1C(=O)OC	> 100 µM	> 100 µM	> 100 µM		> 100 µM	> 100 µM	> 100 µM	> 100 µM												
CC1(C)N=C(N)N=C(N)N1c1ccc(OCCCNC(=O)Nc2cccc(S(=O)(=O)F)c2)c(Cl)c1	> 100 µM	> 100 µM	> 100 µM		> 100 µM	> 100 µM	> 100 µM	> 100 µM	> 100 µM	> 100 µM	20.3 µM	3.06 µM	5.08 µM	42.8 µM	7.25 µM		7.02 µM	8.79 µM	0.715 µM	8.37 µM

Compound	TGI [1]	TGI [2]	TGI [3]	TGI [4]	TGI [5]	TGI [6]	TGI [7]	TGI [8]	TGI [9]	TGI [10]	GI50 [1]	GI50 [2]	GI50 [10]	GI50 [3]	GI50 [9]	GI50 [4]	GI50 [5]	GI50 [6]	GI50 [7]	GI50 [8]
Cc1cc(N2CCCCC2)nc(NC2CCCC(Nc3ccnc4cc(Cl)ccc34)C2)n1 (centres undefined)	3.54 µM			3.75 µM	3.27 µM	3.39 µM	3 µM	3.9 µM		3.95 µM	1.54 µM		1.55 µM			1.95 µM	1.73 µM	1.8 µM	1.64 µM	1.99 µM
OCC[N+]12CCCN1CCC2	> 100 µM	> 100 µM	> 100 µM	> 100 µM	> 100 µM	> 100 µM	> 100 µM	> 100 µM												
COc1ccc(C(=O)c2c3cc(OC)c(OC)c(OC)c3cc[n+]2C)cc1	> 100 µM		> 100 µM	62.4 µM	> 100 µM	> 100 µM	35.1 µM	65.2 µM												
Cn1c2c(c3ccccc31)CCN(CCCCN1CCN(c3ccccc3)CC1)C2=O	> 71.9 µM	> 100 µM	30.9 µM	> 100 µM	> 56.2 µM	> 61.8 µM	22.9 µM	> 87 µM		50.6 µM										
O=C(CCc1ccccc1)NS(=O)(=O)c1ccccc1	> 100 µM	> 100 µM	> 100 µM	> 100 µM	> 100 µM	> 100 µM		> 100 µM												
CC(C)(C)C(=O)Nc1cccc2oc(-c3ccccc3)cc12	> 100 µM	96.4 µM			> 100 µM	> 100 µM														
NC1CCCCC1N.O=C1C=C/C(=C(/c2ccc(O)c(Br)c2)c2ccccc2S(=O)(=O)[O-])C=C1Br.O=C1C=C/C(=C(/c2ccc(O)c(Br)c2)c2ccccc2S(=O)(=O)[O-])C=C1Br.[Pt+4]	> 100 µM	> 100 µM	21.3 µM	22.6 µM	> 100 µM	38.2 µM	21.4 µM				93 µM	> 100 µM		0.664 µM		1.9 µM	1.27 µM	2.35 µM	3.29 µM	
COc1ccc(C2CC(c3ccc(Nc4ccnc5cc(Cl)ccc45)cc3)=NN2C=O)cc1 (centres undefined)	> 100 µM		> 100 µM		> 100 µM	90.9 µM	43.2 µM	> 100 µM	> 100 µM	> 100 µM	> 100 µM		> 100 µM	> 100 µM	20.1 µM		69.8 µM	20.9 µM	0.617 µM	> 100 µM
NS(=O)(=O)c1ccc(NC(=O)Cc2nc3ccccc3s2)cc1	37.2 µM	29.8 µM	30.3 µM	33.2 µM	34.9 µM	32 µM	34.5 µM	33 µM												
COc1cccc(/C=C/C(=O)c2sc(C(N)=S)nc2C)c1O	> 100 µM	> 100 µM	> 100 µM	> 74 µM	> 100 µM	> 100 µM	> 100 µM	> 100 µM												
O=C(O)c1ccc(C(O)(c2ccccc2)c2ccccc2)cc1	> 100 µM		> 100 µM	> 100 µM	> 100 µM	> 100 µM	> 100 µM		> 100 µM	> 100 µM										
N#CCC(=O)N/N=C1/C(=O)N(c2cc(Cl)ccc2Cl)C(=O)C(=O)C1c1nc2ccccc2s1 (centres undefined)	> 100 µM	83.1 µM	> 100 µM	> 100 µM	> 100 µM	> 100 µM	> 100 µM	> 100 µM												
COc1cccc(-c2cc(=O)c3cc(N4CCOCC4)ccc3[nH]2)c1	> 100 µM			0.0395 µM and 0.0852 µM	0.337 µM and 0.152 µM					0.055 µM	0.0608 µM	0.246 µM		0.019 µM		0.0209 µM	0.0303 µM	0.0248 µM	0.0319 µM	0.0806 µM
Cc1ccc(S(=O)(=O)N2CCN(C=S)CC2)cc1	> 100 µM		> 100 µM	> 100 µM	> 100 µM	> 100 µM	> 100 µM													
CC(C)(C)c1cc(CCCCCCCC2(CCCCCCCc3cc(C(C)(C)C)cc(C(C)(C)C)c3)OC(COCCOCCCCCC#N)C(COCCOCCCCCC#N)O2)cc(C(C)(C)C)c1 (centres undefined)	> 100 µM	> 100 µM	> 100 µM	> 100 µM	> 100 µM	> 100 µM	> 100 µM	> 100 µM												
O=[N+]([O-])c1ccc(C(Cl)C(Cl)c2ccc(C(Cl)C(Cl)c3ccc([N+](=O)[O-])cc3[N+](=O)[O-])cc2)c([N+](=O)[O-])c1 (centres undefined)	6.18 µM and 2.49 µM	3.28 µM	2.33 µM and 0.57 µM	2.36 µM and 0.447 µM	2.13 µM and 0.918 µM	12.3 µM and 1.96 µM	1.86 µM and 0.335 µM				0.559 µM			0.243 µM		0.183 µM	0.282 µM	0.389 µM	0.172 µM	0.23 µM
CCOC(=O)C(CCC(N)=O)(CCC(=O)OC)C(=O)OCC	> 100 µM	> 100 µM	> 100 µM	> 100 µM	> 100 µM	> 100 µM		> 100 µM												
CCOc1ccc(/C=C/c2cc(OC)c(OC)c(OC)c2)cc1	> 100 µM	93.8 µM	28.8 µM	2.21 µM	> 100 µM	> 100 µM	14.6 µM	> 26.1 µM												
N#CC(C#N)=C1CCOc2ccc(F)cc21	9.3 µM	15.9 µM		> 100 µM	43.7 µM	> 100 µM	> 100 µM	53.7 µM	25.7 µM	41.6 µM		2.05 µM	0.289 µM		13 µM	> 100 µM	19 µM	> 100 µM	33.2 µM	18 µM
COc1cc(CNCCN2C(=O)c3ccc4c5c(ccc(c35)C2=O)C(=O)N(CCNCc2cc(OC)c(OC)c(OC)c2)C4=O)cc(OC)c1OC				0.496 µM					0.605 µM						0.181 µM	0.123 µM				
O=C1C(=C([O-])c2ccccc2)C(=O)c2ccccc21.O=C1C(=C([O-])c2ccccc2)C(=O)c2ccccc21.[Mn+2]	> 100 µM		> 100 µM		> 100 µM	> 100 µM	> 100 µM	> 100 µM			> 100 µM			> 100 µM			> 100 µM	93.8 µM	16.1 µM	32 µM
